Assay results published in US20120245155A1, “FUSED HETEROCYCLIC COMPOUND HAVING AMINO GROUP” (Shionogi & Co., Ltd., priority 2009, published 2012).

Tests used:
[1] = test system: Neuroblastoma SH—SY5Y cells (SH/APPwt) with human wild-type β-APP excessively expressed; experiment: Measurement of β-amyloid (Aβ) production inhibitory effect in cell; assay type: cell-based; settings: 24 hours incubation, Amyloid β 1-40 by HTRF, read-out: amount needed to inhibit Aβ production by 50% (IC50)
Description: Neuroblastoma SH—SY5Y cells (SH/APPwt) with human wild-type p-APP excessively expressed therein were prepared at 8×10^5 cells/mL, and 150 μl portions thereof were inoculated into each well of a 96-well culture plate (Falcon). The cells were cultured for 2 hours at 37° C. in a 5% gaseous carbon dioxide incubator. Then, a solution which had been preliminarily prepared by adding and suspending the test compound (DMSO (dimethyl sulfoxide) solution) so as to be 2 μl/50 μl medium was added to the cell sap. Namely, the final DMSO concentration was 1%, and the amount of the cell culture was 200 μl. After the incubation was performed for 24 hours from the addition of the test compound, 100 μl of the culture supernatant was collected from each fraction. The amount of the Aβ in each fraction was measured.
The Aβ amount was measured as follows. 10 μl of a homogeneous time resolved fluorescence (HTRF) measurement reagent (Amyloid β 1-40 peptide; IBA Molecular Holding, S. A.) and 10 μl of the culture supernatant were put into a 384-well half area microplate (black microplate, Costar) and mixed with each other, and then left standing overnight at 4° C. while the light was shielded. Then, the fluorescence intensity (excitation wavelength: 337 nm, measurement wavelength: 620 nm and 665 nm) was measured with a Wallac 1420 multilabel counter (Perkin Elmer life sciences). The Aβ amount was determined from the count rate at each measurement wavelength (10000× Count 665/Count 620), and the amount needed to inhibit Aβ production by 50% (IC50) was calculated from at least six different dosages.

[2] = biological target: T1, hERG (IKr) (Homo sapiens, UniProt Q12809); experiment: hERG test; assay type: cell-based; settings: pH 7.4, HEK293 cells expressing hERG channel, whole cell patch clamp, concentration not given, read-out: % inhibition relative to the tail peak current (IKr)
T1 construct: expressed in transfected cells; host or cells: HEK293 cells
Description: For the purpose of assessing risk of an electrocardiogram QT interval prolongation, effects on delayed rectifier K+ current (IKr), which plays an important role in the ventricular repolarization process of the compound of the present invention, is studied using HEK293 cells expressing human ether-a-go-go related gene (hERG) channel.
After a cell was retained at a membrane potential of −80 mV by whole cell patch clamp method using an automated patch clamp system (PatchXpress 7000A, Axon Instruments Inc.), IKr induced by depolarization pulse stimulation at +40 mV for 2 seconds and, further, repolarization pulse stimulation at −50 mV for 2 seconds was recorded. […] From the recording IKr, an absolute value of the tail peak current was measured based on the current value at the resting membrane potential using analysis software (DataXpress ver. 1, Molecular Devices Corporation). Further, the % inhibition relative to the tail peak current before application of the test compound was calculated, and compared with the vehicle-applied group (0.1% dimethyl sulfoxide solution) to assess influence of the test compound on IKr.

T1 sequence (Q12809 whole entry): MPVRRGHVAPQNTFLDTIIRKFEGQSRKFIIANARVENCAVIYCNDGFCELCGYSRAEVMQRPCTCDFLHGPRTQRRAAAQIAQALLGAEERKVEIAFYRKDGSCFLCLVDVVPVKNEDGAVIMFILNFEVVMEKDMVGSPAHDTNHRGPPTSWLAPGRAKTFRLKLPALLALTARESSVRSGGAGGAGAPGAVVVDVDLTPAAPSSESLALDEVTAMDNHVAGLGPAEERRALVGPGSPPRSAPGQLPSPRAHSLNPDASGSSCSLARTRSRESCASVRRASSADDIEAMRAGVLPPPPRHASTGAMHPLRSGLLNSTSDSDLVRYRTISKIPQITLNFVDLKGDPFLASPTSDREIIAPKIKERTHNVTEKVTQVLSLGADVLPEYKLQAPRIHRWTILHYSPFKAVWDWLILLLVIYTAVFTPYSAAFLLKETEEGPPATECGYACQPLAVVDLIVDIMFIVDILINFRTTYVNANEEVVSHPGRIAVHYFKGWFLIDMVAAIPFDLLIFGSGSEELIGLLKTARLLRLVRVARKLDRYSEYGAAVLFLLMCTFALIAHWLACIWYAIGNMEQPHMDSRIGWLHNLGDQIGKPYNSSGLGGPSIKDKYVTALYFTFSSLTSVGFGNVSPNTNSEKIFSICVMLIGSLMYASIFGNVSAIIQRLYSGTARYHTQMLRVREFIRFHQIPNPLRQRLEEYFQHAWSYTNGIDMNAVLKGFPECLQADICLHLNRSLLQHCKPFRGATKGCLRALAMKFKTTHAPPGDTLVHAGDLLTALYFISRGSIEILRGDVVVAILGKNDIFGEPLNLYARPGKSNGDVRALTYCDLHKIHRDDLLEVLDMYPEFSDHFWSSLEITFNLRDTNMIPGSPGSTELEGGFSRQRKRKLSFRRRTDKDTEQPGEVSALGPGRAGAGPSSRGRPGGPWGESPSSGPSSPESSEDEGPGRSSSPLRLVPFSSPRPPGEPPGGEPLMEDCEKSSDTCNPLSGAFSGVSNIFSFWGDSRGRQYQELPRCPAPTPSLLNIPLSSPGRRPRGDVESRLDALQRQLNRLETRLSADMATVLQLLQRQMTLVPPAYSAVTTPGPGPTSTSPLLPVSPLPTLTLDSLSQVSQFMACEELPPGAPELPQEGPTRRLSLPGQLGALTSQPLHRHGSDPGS

IC50 [1]: ≤ 1 µM
Structure (SMILES): NC1=NC2(c3cc(-c4cncnc4)ccc3F)CCCC2CO1 (racemic) [Compound I-39]
inhibition at 10 min [2]: 19.3%
